Reference: patent US20220107328A1, “METHODS OF TREATING LIVER DISEASES” (Camp4 Therapeutics Corporation, priority 2018, published 2022)

Assays:
PNPLA3 mRNA [1] = assay: qRT-PCR of PNPLA3 mRNA in compound-treated primary human hepatocytes; settings: for mrna remaining at 10 µM / mrna remaining at 1 µM: Homo sapiens, Hepatocyte; for Relative PNPLA3 mRNA expression: primary human hepatocytes, Table 35
PNPLA3 mRNA [2] = assay: qRT-PCR of PNPLA3 mRNA in compound-treated mouse hepatocytes; assay type: cell-based
PNPLA3 mRNA [3] = assay: qRT-PCR of PNPLA3 mRNA in human primary hepatic stellate cells; assay type: cell-based; settings: for mrna remaining at 1 µM / mrna remaining at 10 µM / PNPLA3 mRNA remaining after treatment compared to untreated cells: Human Stellate; for mrna remaining at 1 µM / mrna remaining at 10 µM: read-out: PNPLA3 mRNA remaining after treatment compared to untreated cells; for Relative PNPLA3 mRNA levels RQ: hepatic stellate cells; for Relative PNPLA3 mRNA expression: stellate cells, Table 37
COL1A1 mRNA = assay: qRT-PCR of COL1A1 mRNA in human primary hepatic stellate cells; assay type: cell-based; settings: hepatic stellate cells
[4] = read-out: PNPLA3 mRNA remaining after treatment compared to untreated cells, H Hep Donor-3, 10 uM
[5] = read-out: PNPLA3 mRNA remaining after treatment compared to untreated cells, H Hep Donor-4, 1 uM
[6] = read-out: PNPLA3 mRNA remaining after treatment compared to untreated cells, H Hep Donor-4, 10 uM
[7] = read-out: PNPLA3 mRNA remaining after treatment compared to untreated cells, H Hep Donor-5, 1 uM
[8] = read-out: PNPLA3 mRNA remaining after treatment compared to untreated cells, H Hep Donor-5, 10 uM
[9] = Hepatocyte, Mouse hepatocytes, 10 uM, read-out: PNPLA3 mRNA remaining after treatment compared to untreated cells

Cc1cccc(-c2nn3c(c2-c2ccnc4ccc(C(N)=O)cc24)CCC3)n1 [LY2157299 Galunisertib]
mrna remaining at 10 µM (PNPLA3 mRNA [1]; read-out: PNPLA3 mRNA remaining after treatment compared to untreated cells, H Hep Donor-1, 10 uM): 50%
mrna remaining at 10 µM (PNPLA3 mRNA [1]; read-out: PNPLA3 mRNA remaining after treatment compared to untreated cells, H Hep Donor-2, 10 uM): 70%
mrna remaining at 10 µM (PNPLA3 mRNA [1]; [4]): 80%
mrna remaining at 1 µM (PNPLA3 mRNA [1]; [5]): 75%
mrna remaining at 10 µM (PNPLA3 mRNA [1]; [6]): 50%
mrna remaining at 1 µM (PNPLA3 mRNA [1]; [7]): 55%
mrna remaining at 10 µM (PNPLA3 mRNA [1]; [8]): 50%
mrna remaining at 10 µM (PNPLA3 mRNA [2]; [9]): 102%
mrna remaining at 1 µM (PNPLA3 mRNA [3]; 1 uM): 65%
mrna remaining at 10 µM (PNPLA3 mRNA [3]; 10 uM): 100%

FC(F)(F)c1ccc(/C=C/c2nc(COc3ccc(CCCCn4ccnn4)cc3)co2)cc1 [Mubritinib (TAK 165)]
PNPLA3 mRNA remaining after treatment compared to untreated cells (PNPLA3 mRNA [1]; H Hep Donor-2, 10 uM): 0.39
PNPLA3 mRNA remaining after treatment compared to untreated cells (PNPLA3 mRNA [1]; H Hep Donor-3, 10 uM): 0.2
PNPLA3 mRNA remaining after treatment compared to untreated cells (PNPLA3 mRNA [1]; H Hep Donor-4, 1 uM): 0.55
PNPLA3 mRNA remaining after treatment compared to untreated cells (PNPLA3 mRNA [1]; H Hep Donor-4, 10 uM): 0.4
PNPLA3 mRNA remaining after treatment compared to untreated cells (PNPLA3 mRNA [1]; H Hep Donor-5, 1 uM): 0.6
PNPLA3 mRNA remaining after treatment compared to untreated cells (PNPLA3 mRNA [1]; H Hep Donor-5, 10 uM): 0.25
PNPLA3 mRNA remaining after treatment compared to untreated cells (PNPLA3 mRNA [2]; Mouse hepatocytes, 1 uM): 1.12
PNPLA3 mRNA remaining after treatment compared to untreated cells (PNPLA3 mRNA [2]; Mouse hepatocytes, 10 uM): 0.09
PNPLA3 mRNA remaining after treatment compared to untreated cells (PNPLA3 mRNA [3]; 1 uM): 0.2
PNPLA3 mRNA remaining after treatment compared to untreated cells (PNPLA3 mRNA [3]; 10 uM): 0.78

COc1cccc2cc(-c3nc([C@H]4CC[C@H](C(=O)O)CC4)n4ncnc(N)c34)[nH]c12 [OSI-027/ASP7486]
PNPLA3 mRNA remaining after treatment compared to untreated cells (PNPLA3 mRNA [1]; H Hep Donor-1, 1 uM (stated in cell)): 0.3 (1 uM)
PNPLA3 mRNA remaining after treatment compared to untreated cells (PNPLA3 mRNA [1]; H Hep Donor-2, 1 uM (stated in cell)): 0.4 (1 uM)
PNPLA3 mRNA remaining after treatment compared to untreated cells (PNPLA3 mRNA [1]; H Hep Donor-3, 10 uM): 0.55
PNPLA3 mRNA remaining after treatment compared to untreated cells (PNPLA3 mRNA [1]; H Hep Donor-4, 1 uM): 0.6
PNPLA3 mRNA remaining after treatment compared to untreated cells (PNPLA3 mRNA [1]; H Hep Donor-4, 10 uM): 0.38
PNPLA3 mRNA remaining after treatment compared to untreated cells (PNPLA3 mRNA [1]; H Hep Donor-5, 1 uM): 0.5
PNPLA3 mRNA remaining after treatment compared to untreated cells (PNPLA3 mRNA [1]; H Hep Donor-5, 10 uM): 0.2
PNPLA3 mRNA remaining after treatment compared to untreated cells (PNPLA3 mRNA [2]; Mouse hepatocytes, 1 uM): 0.3
PNPLA3 mRNA remaining after treatment compared to untreated cells (PNPLA3 mRNA [2]; Mouse hepatocytes, 10 uM): 0.35
PNPLA3 mRNA remaining after treatment compared to untreated cells (PNPLA3 mRNA [3]; 1 uM): 0.2
PNPLA3 mRNA remaining after treatment compared to untreated cells (PNPLA3 mRNA [3]; 10 uM): 0.65

CN(c1ncccc1CNc1nc(Nc2ccc3c(c2)CC(=O)N3)ncc1C(F)(F)F)S(C)(=O)=O [PF-00562271]
PNPLA3 mRNA remaining after treatment compared to untreated cells (PNPLA3 mRNA [1]; H Hep Donor-2, 10 uM): 0.34
PNPLA3 mRNA remaining after treatment compared to untreated cells (PNPLA3 mRNA [1]; H Hep Donor-3, 10 uM): 0.2
PNPLA3 mRNA remaining after treatment compared to untreated cells (PNPLA3 mRNA [1]; H Hep Donor-4, 10 uM): 0.5
PNPLA3 mRNA remaining after treatment compared to untreated cells (PNPLA3 mRNA [1]; H Hep Donor-5, 1 uM): 1
PNPLA3 mRNA remaining after treatment compared to untreated cells (PNPLA3 mRNA [1]; H Hep Donor-5, 10 uM): 0.25
PNPLA3 mRNA remaining after treatment compared to untreated cells (PNPLA3 mRNA [2]; Mouse hepatocytes, 10 uM): 0.27
PNPLA3 mRNA remaining after treatment compared to untreated cells (PNPLA3 mRNA [3]; 1 uM): 1
PNPLA3 mRNA remaining after treatment compared to untreated cells (PNPLA3 mRNA [3]; 10 uM): 0.18

CC(C)n1nc(-c2cc3cc(O)ccc3[nH]2)c2c(N)ncnc21 [PP242, Torkinib]
Relative COL1A1 mRNA levels RQ (COL1A1 mRNA; 0.01 μM): 1.09
Relative COL1A1 mRNA levels RQ (COL1A1 mRNA; 0.1 μM): 1.02
Relative COL1A1 mRNA levels RQ (COL1A1 mRNA; 1 μM): 0.40
Relative COL1A1 mRNA levels RQ (COL1A1 mRNA; 10 μM): 0.18
Relative PNPLA3 mRNA levels (PNPLA3 mRNA [1]): 0.50 ± 0.02
Relative PNPLA3 mRNA levels (PNPLA3 mRNA [2]; mouse hepatocytes, 1 μM, normalized to ACTB): 0.44 ± 0.10
Relative PNPLA3 mRNA levels RQ (PNPLA3 mRNA [3]; 0.01 μM): 1.07
Relative PNPLA3 mRNA levels RQ (PNPLA3 mRNA [3]; 0.1 μM): 0.74
Relative PNPLA3 mRNA levels RQ (PNPLA3 mRNA [3]; 1 μM): 0.39
Relative PNPLA3 mRNA levels RQ (PNPLA3 mRNA [3]; 10 μM): 0.63

COc1cc2c(cc1OC)CN(C(=O)/C=C/c1c(-c3ccccc3)n(C)c3ncccc13)CC2 [SIS3]
PNPLA3 mRNA remaining after treatment compared to untreated cells (PNPLA3 mRNA [1]; H Hep Donor-1, 10 uM): 0.2
PNPLA3 mRNA remaining after treatment compared to untreated cells (PNPLA3 mRNA [1]; H Hep Donor-2, 10 uM): 0.55
Relative PNPLA3 mRNA expression (PNPLA3 mRNA [1]; 3.3 uM): 1.358 ± 0.3303
Relative PNPLA3 mRNA expression (PNPLA3 mRNA [1]; 10 uM): 1.011 ± 0.2574
PNPLA3 mRNA remaining after treatment compared to untreated cells (PNPLA3 mRNA [2]; Mouse hepatocytes, 10 uM): 0.50
Relative PNPLA3 mRNA expression (PNPLA3 mRNA [3]; 0.01 uM): 1.49 ± 0.09
Relative PNPLA3 mRNA expression (PNPLA3 mRNA [3]; 0.1 uM): 1.38 ± 0.19
Relative PNPLA3 mRNA expression (PNPLA3 mRNA [3]; 1 uM): 0.77 ± 0.03
Relative PNPLA3 mRNA expression (PNPLA3 mRNA [3]; 10 uM): 7.95 ± 2.29

CC(C)c1cc(CNc2nc(Nc3cc(C4CC4)[nH]n3)cc(N3CCN(C)CC3)n2)on1 [XL228]
mrna remaining at 1 µM (PNPLA3 mRNA [1]; read-out: PNPLA3 mRNA remaining after treatment compared to untreated cells, H Hep Donor-1, 1 uM (stated in cell)): 40%
mrna remaining at 10 µM (PNPLA3 mRNA [1]; [4]): 30%
mrna remaining at 1 µM (PNPLA3 mRNA [1]; [5]): 55%
mrna remaining at 10 µM (PNPLA3 mRNA [1]; [6]): 55%
mrna remaining at 1 µM (PNPLA3 mRNA [1]; [7]): 55%
mrna remaining at 10 µM (PNPLA3 mRNA [1]; [8]): 25%
mrna remaining at 1 µM (PNPLA3 mRNA [2]; Hepatocyte, Mouse hepatocytes, 1 uM, read-out: PNPLA3 mRNA remaining after treatment compared to untreated cells): 40%
mrna remaining at 10 µM (PNPLA3 mRNA [2]; [9]): 12%
mrna remaining at 1 µM (PNPLA3 mRNA [3]; 1 uM): 80%
mrna remaining at 10 µM (PNPLA3 mRNA [3]; 10 uM): 70%
